This assay addresses T1, Dimer of Gag-Pol polyprotein [501-599,Q508K,L534I,L564I,C568A,C596A] (Human immunodeficiency virus 1, UniProt P03367, C568A/C596A/L534I/L564I/Q508K).
T1 construct: 501-599
As to the kind of experiment: Protease Inhibition Assay. The conditions noted are these: pH 6.4; 25 °C. Here is the method: The Ki values were determined using fluorogenic substrate, 2-(aminobenzoyl)-Thr-Ile-Nle-Phe(p-NO2)-Gln-ArgNH2. A standard curve relating changes in fluorescent intensity to changes in concentration of product was used to convert fluorescent changes into molar velocities. The amount of cleavage was determined by HPLC.

In the case of `COc1ccc(S(=O)(=O)N(CC(C)C)C[C@@H](O)[C@@H]2CCCC/C=C\COc3c(O)cccc3C(=O)N2)cc1` [(2R)-2-hydroxy-2-[(9S)-15-hydroxy-11-oxo-2,5,6,7,8,9,10,11-octahydro-1,10-benzoxazacyclotridecin-9-yl]-N-(4-methoxyphenyl)-N-(2-methylpropyl)ethane-1-sulfonamido], the inhibitory constant (Ki) was 2 nM. This counts as single-digit nanomolar.

The Ki is a dissociation constant, usually derived from enzyme kinetics or from competition with a known ligand. A high value points to weaker binding.

The record behind these values is BindingDB's records for doi:10.1021/jm050019i (University of Illinois At Chicago, 2005).
